The test addresses T1, human M1 receptor (hCHRM1) (Homo sapiens, UniProt P11229).
T1 construct: expressed in transfected cells
T1 sequence (P11229 1-460): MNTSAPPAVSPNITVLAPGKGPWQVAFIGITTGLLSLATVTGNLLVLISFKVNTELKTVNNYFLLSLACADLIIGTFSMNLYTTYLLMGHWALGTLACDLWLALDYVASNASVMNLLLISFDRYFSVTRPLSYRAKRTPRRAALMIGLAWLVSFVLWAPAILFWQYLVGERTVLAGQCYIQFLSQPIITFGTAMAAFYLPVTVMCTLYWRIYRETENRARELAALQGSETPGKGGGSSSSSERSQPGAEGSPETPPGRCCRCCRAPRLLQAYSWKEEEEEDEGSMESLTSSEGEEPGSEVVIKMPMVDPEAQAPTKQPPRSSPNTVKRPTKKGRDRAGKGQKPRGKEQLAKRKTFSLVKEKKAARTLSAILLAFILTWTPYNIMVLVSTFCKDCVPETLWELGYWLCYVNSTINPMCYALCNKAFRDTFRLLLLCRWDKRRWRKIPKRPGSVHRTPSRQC
Briefly: Measurement of M1 receptor positive allosteric modulator (M1PAM) activity (calcium fluorescence, Fluo-4). Type of test: cell-based. The following applies: for EC50: inflection point of concentration-dependent curve, CHO-K1 cells stably expressing hCHRM1, in presence of acetylcholine at EC20 (final 0.8-1.0 nM), read-out: IP value; for activity (%) at 10 μM: test compound 10 μM with acetylcholine at EC20, 100% = 1 μM acetylcholine, 0% = DMSO, CHO-K1 cells expressing hCHRM1. As to the method: Measurement of M1 Receptor Positive Allosteric Modulator (M1PAM) Activity
The activity of a test compound in the presence of acetylcholine at EC20 concentration (final concentration 0.8-1.0 nM), which affords an action corresponding to about 20% of the maximum activity, was measured as PAM activity. The method is as follows. CHO-K1 cells stably expressing a human M1 receptor (hCHRM1) were plated on a 384-well black clear bottom plate (BD Falcon) at 5,000 cells/well, and cultured in an incubator at 37° C., 5% CO2 for 1 day. The medium in the cell plate was removed, and assay buffer A containing a calcium indicator (Recording medium (DOJINDO LABORATORIES), 0.1% BSA (Wako Pure Chemical Industries, Ltd.), 2.5 μg/mL Fluo-4 AM (DOJINDO LABORATORIES), 0.08% Pluronic F127 (DOJINDO LABORATORIES) and 1.25 mM probenecid (DOJINDO LABORATORIES) were added at 30 μL/well. The cells were left standing in the incubator at 37° C., 5% CO2 for 30 min, and further left standing at room temperature for 30 min. A test compound prepared by diluting with assay buffer B (HBSS (Invitrogen), 20 mM HEPES (Invitrogen), 0.1% BSA) containing 3.2-4.0 nM acetylcholine was added at 10 μL/well, and the fluorescence was measured by FDSS/pcell (Hamamatsu Photonics K.K.) for 1 min every for 1 second. With the definition that the amount of change in the fluorescence on addition of acetylcholine (final concentration 1 μM) is 100% and that on addition of DMSO instead of a test compound is 0%, the activity (%) of the test compound was calculated, and the inflection point in the concentration-dependent curve of the test compound was calculated as IP values.

`COc1c(C(=O)N[C@H]2CCC[C@@H]2O)cc(Cc2ccc(-n3cccn3)cc2)c(C)c1C` (relative stereo) [Example 2, N-(trans-2-hydroxycyclopentyl)-2-methoxy-3,4-dimethyl-5-(4-(1H-pyrazol-1-yl)benzyl)benzamide]: the EC50 came out at 95 nM and the “activity (%) at 10 μM” value is on record as 96%.
For `COc1c(C(=O)N[C@H]2CCC[C@@H]2O)cc(Cc2ccc(-c3cn(C)nn3)cc2)c(C)c1C` (relative stereo) [Example 4, N-(trans-2-hydroxycyclopentyl)-2-methoxy-3,4-dimethyl-5-(4-(1-methyl-1H-1,2,3-triazol-4-yl)benzyl)benzamide], in that order: 23 nM and 108%.
For `COc1c(C(=O)N[C@H]2CCCC[C@@H]2O)cc(Cc2ccc(-c3cn(C)nn3)cc2)c(C)c1C` (relative stereo) [Example 5, N-(trans-2-hydroxycyclohexyl)-2-methoxy-3,4-dimethyl-5-(4-(1-methyl-1H-1,2,3-triazol-4-yl)benzyl)benzamide], the EC50 was 12 nM and the “activity (%) at 10 μM” value is given as 105%.
On to `COc1c(C(=O)N[C@H]2CCCC[C@@H]2O)cc(Cc2ccc(-c3cn(C)nn3)cc2)c(C)c1C` (single isomer, unassigned) [Example 10, N-(trans-2-hydroxycyclohexyl)-2-methoxy-3,4-dimethyl-5-(4-(1-methyl-1H-1,2,3-triazol-4-yl)benzyl)benzamide], for which the EC50 turned out to be 4.8 nM and the “activity (%) at 10 μM” value was found to be 106%.
With `COc1c(C(=O)N[C@@H]2CCCC[C@H]2O)cc(Cc2ccc(-c3cn(C)nn3)cc2)c(C)c1C` (single isomer, unassigned) [Example 11, N-(trans-2-hydroxycyclohexyl)-2-methoxy-3,4-dimethyl-5-(4-(1-methyl-1H-1,2,3-triazol-4-yl)benzyl)benzamide], the EC50 was found to be 37 nM and the “activity (%) at 10 μM” value is listed as 97%.
On to `COc1c(C(=O)NCC2CCCO2)cc(Cc2ccc(-c3cn(C)nn3)cc2)c(C)c1C` (stereo not drawn) [Example 6, 2-methoxy-3,4-dimethyl-5-(4-(1-methyl-1H-1,2,3-triazol-4-yl)benzyl)-N-(tetrahydrofuran-2-ylmethyl)benzamide], for which the EC50 turned out to be 23 nM and the “activity (%) at 10 μM” value was found to be 107%.
For `Cc1c(Cc2ccc(-n3cccn3)cc2)cc(C(=O)N[C@H]2COCC[C@@H]2O)c(F)c1C` [Example 12, 2-fluoro-N-((3S,4S)-4-hydroxytetrahydro-2H-pyran-3-yl)-3,4-dimethyl-5-(4-(1H-pyrazol-1-yl)benzyl)benzamide], in that order: 19 nM and 103%.
Regarding `COc1c(C(=O)N[C@H]2COCC[C@@H]2O)cc(Cc2ccc(-c3cn(C)nn3)cc2)c(C)c1C` [Example 13, N-((3S,4S)-4-hydroxytetrahydro-2H-pyran-3-yl)-2-methoxy-3,4-dimethyl-5-(4-(1-methyl-1H-1,2,3-triazol-4-yl)benzyl)benzamide], the EC50 turned out to be 9.4 nM and the “activity (%) at 10 μM” value amounted to 102%.
Take `COc1c(C(=O)N[C@H]2CCCC[C@@H]2O)cc(Cc2ccc(-n3ccnn3)cc2)c(C)c1C` [Example 14, N-((1S,2S)-2-hydroxycyclohexyl)-2-methoxy-3,4-dimethyl-5-(4-(1H-1,2,3-triazol-1-yl)benzyl)benzamide]: the EC50 is 8.6 nM and the “activity (%) at 10 μM” value is given as 98%.
For `CCOc1c(C(=O)N[C@H]2CCCC[C@@H]2O)cc(Cc2ccc(-c3cn(C)nn3)cc2)c(C)c1C` [Example 15, 2-ethoxy-N-((1S,2S)-2-hydroxycyclohexyl)-3,4-dimethyl-5-(4-(1-methyl-1H-1,2,3-triazol-4-yl)benzyl)benzamide], in that order: 14 nM and 100%.
`Cc1c(Cc2ccc(-c3cn(C)nn3)cc2)cc(C(=O)N[C@H]2CCCC[C@@H]2O)c(OC(C)C)c1C` [Example 16, N-((1S,2S)-2-hydroxycyclohexyl)-2-isopropoxy-3,4-dimethyl-5-(4-(1-methyl-1H-1,2,3-triazol-4-yl)benzyl)benzamide]: the EC50 amounted to 30 nM and the “activity (%) at 10 μM” value is 99%.
On to `Cc1c(Cc2ccc(-c3cn(C)nn3)cc2)cc(C(=O)N[C@H]2CCCC[C@@H]2O)c(OCC2CC2)c1C` [Example 17, 2-(cyclopropylmethoxy)-N-((1S,2S)-2-hydroxycyclohexyl)-3,4-dimethyl-5-(4-(1-methyl-1H-1,2,3-triazol-4-yl)benzyl)benzamide], for which the EC50 is 40 nM and the “activity (%) at 10 μM” value was found to be 99%.
For the compound `Cc1c(Cc2ccc(-c3cn(C)nn3)cc2)cc(C(=O)N[C@H]2CCCC[C@@H]2O)c(OC(F)F)c1C` [Example 18, 2-(difluoromethoxy)-N-((1S,2S)-2-hydroxycyclohexyl)-3,4-dimethyl-5-(4-(1-methyl-1H-1,2,3-triazol-4-yl)benzyl)benzamide], the EC50 was 27 nM and the “activity (%) at 10 μM” value is 97%.
Consider `Cc1c(Cc2ccc(-n3cccn3)nc2)cc(C(=O)N[C@H]2CCC[C@@H]2O)c(F)c1C` [Example 19, 2-fluoro-N-((1S,2S)-2-hydroxycyclopentyl)-3,4-dimethyl-5-((6-(1H-pyrazol-1-yl)pyridin-3-yl)methyl)benzamide], for which the EC50 was 84 nM and the “activity (%) at 10 μM” value was 93%.
For the compound `Cc1c(Cc2ccc(-n3cccn3)nc2)cc(C(=O)N[C@H]2CCCC[C@@H]2O)c(F)c1C` [Example 20, 2-fluoro-N-((1S,2S)-2-hydroxycyclohexyl)-3,4-dimethyl-5-((6-(1H-pyrazol-1-yl)pyridin-3-yl)methyl)benzamide], the EC50 was found to be 31 nM and the “activity (%) at 10 μM” value is 97%.
For the compound `COc1c(C(=O)N[C@H]2CCCC[C@@H]2O)cc(Cc2ccc(-c3ccn(C)n3)nc2)c(C)c1C` [Example 21, N-((1S,2S)-2-hydroxycyclohexyl)-2-methoxy-3,4-dimethyl-5-((6-(1-methyl-1H-pyrazol-3-yl)pyridin-3-yl)methyl)benzamide], the EC50 worked out at 10 nM and the “activity (%) at 10 μM” value worked out at 96%.
With `COc1c(C(=O)N[C@H]2CCC[C@@H]2O)cc(Cc2ccc(-c3ccn(C)n3)nc2)c(C)c1C` [Example 22, N-((1S,2S)-2-hydroxycyclopentyl)-2-methoxy-3,4-dimethyl-5-((6-(1-methyl-1H-pyrazol-3-yl)pyridin-3-yl)methyl)benzamide], the EC50 is 55 nM and the “activity (%) at 10 μM” value turned out to be 95%.
On to `COc1c(C(=O)N[C@H]2CCOC[C@@H]2O)cc(Cc2ccc(-c3cn(C)nn3)cc2)c(C)c1C` [Example 24, 1,5-anhydro-2,3-dideoxy-3-((2-methoxy-3,4-dimethyl-5-(4-(1-methyl-1H-1,2,3-triazol-4-yl)benzyl)benzoyl)amino)-L-threo-pentitol], for which the EC50 came out at 2.6 nM and the “activity (%) at 10 μM” value was determined as 95%.
`Cc1c(Cc2ccc(-n3cccn3)cc2)cc(C(=O)N[C@H]2COCC[C@@H]2O)c(F)c1F` [Example 25, 1,5-anhydro-2,4-dideoxy-2-((2,3-difluoro-4-methyl-5-(4-(1H-pyrazol-1-yl)benzyl)benzoyl)amino)-L-threo-pentitol]: the EC50 stood at 33 nM and the “activity (%) at 10 μM” value worked out at 97%.
`COc1c(C(=O)N[C@H]2COCC[C@@H]2O)cc(Cc2ccc(-c3ccn(C)n3)cc2)c(C)c1C` [Example 26, 1,5-anhydro-2,4-dideoxy-2-((2-methoxy-3,4-dimethyl-5-(4-(1-methyl-1H-pyrazol-3-yl)benzyl)benzoyl)amino)-L-threo-pentitol]: the EC50 came out at 31 nM and the “activity (%) at 10 μM” value turned out to be 99%.
With `COc1c(C(=O)N[C@H]2COCC[C@@H]2O)cc(Cc2ccc(-n3cccn3)cc2)c(C)c1C` [Example 27, 1,5-anhydro-2,4-dideoxy-2-((2-methoxy-3,4-dimethyl-5-(4-(1H-pyrazol-1-yl)benzyl)benzoyl)amino)-L-threo-pentitol], the EC50 worked out at 39 nM and the “activity (%) at 10 μM” value is listed as 100%.

Source of the values: patent publication US10548877B2, “Aromatic ring compound” (TAKEDA PHARMACEUTICAL COMPANY LIMITED, priority 2016, dated 2020).
